Legend:
[1] = 6 month dry powder stability, HPLC assay; type: physicochemical; settings: Tables 2 and 3, prepared according to the process of the invention
Excerpt: (§1) NUC-3373 prepared according to Example 3 and Comparative Example 4 was packed into a transparent LDPE bag which was then filled with nitrogen and tied with a strip seal. This bag was then placed into another transparent LDPE bag which was also filled with nitrogen. A silica gel packet was placed between the two bags before the outermost bag was tied with a strip seal. These bags were then placed in a triple laminated sun light barrier bag which was sealed with a heat sealer. The bags were kept in a HDPE container.
NUC-3373 was initially assayed by HPLC after manufacture (0 months) then after 1 and 2 and/or 3 and 6 months of storage at 2-8° C., 25° C. or 40° C.

[2] = Solution stability, alpha naphthol (0.60 RRT) in DMA:Saline (80:20 v/v); type: physicochemical; settings: solutions in DMA:Saline (80:20 v/v); particularly at room temperature
Protocol: Stability data is also provided in Table 4, which compares the levels of alpha naphthol (0.60 RRT) present in solutions of 400 mg/mL NUC-3373, prepared by Example 3 or 4, above, in DMA:Saline (80:20 v/v) at different temperatures measured over set periods of time. The tested solutions are suitable for infusion and injection and the temperatures and times measured are representative of the environments that solutions suitable for infusion and injection would typically be stored in.
In Table 4 the two values provided for each temperature at each time period, separated by “/”, represent different preparations (samples) of that synthesis.

tumour cells = settings: non-clinical studies, compared with 5-FU and capecitabine; cited from earlier work
[3] = dog, compared with 5-FU; cited from earlier work
a range of cancer models = settings: compared with 5-fluorouracil; cited from earlier work
[4] = Solution stability in DMA:Saline (80:20 v/v) by UPLC; type: physicochemical; settings: 2-8° C.; for Assay / Purity / Total Impurities: DMA:Saline (80:20 v/v) solution, UPLC
Protocol: The inventors have found in further work that DMA:Saline (80:20 v/v) solutions of samples obtained according to the process of the invention show no loss of purity or assay, and alpha naphthol impurity up to 12 months at 2-8° C.

[5] = 12 month dry powder stability, HPLC assay; type: physicochemical
Excerpt: as §1, with “3, above,” for “3 and Comparative Example 4”, “container. The NUC-3373 was initially assayed by HPLC after manufacture then after 3, 6, 9 and 12 months of storage.” for “container.”

C[C@H](NP(=O)(OC[C@H]1O[C@@H](n2cc(F)c(=O)[nH]c2=O)CC1O)Oc1cccc2ccccc12)C(=O)OCc1ccccc1 (stereo partly drawn) [NUC-3373, 5-fluoro-2′-deoxyuridine-5′-O-[1-naphthyl (benzoxy-L-alaninyl)] phosphate]
thermal stability compared with other methods of preparation [1]: thermally more stable than those prepared by other methods
stability of solutions compared with other methods of preparation [2]: more stable than those prepared by other methods
inhibition of tumour cell growth (tumour cells): much greater inhibition of tumour cell growth
tolerability [3]: significantly better tolerated than 5-FU
activity in vitro against a range of cancer models (a range of cancer models): outstanding and far superior to the results obtained with 5-fluorouracil
Assay ([4]; 3rd month): 99%
Purity ([4]; 3rd month): 99.9%
Total Impurities ([4]; 3rd month): 0.07%
Assay ([4]; 6th month): 101%
Purity ([4]; 6th month): 99.9%
Total Impurities ([4]; 6th month): 0.08%
Assay ([4]; 12th month): 101%
Purity ([4]; 12th month): 99.9%
Total Impurities ([4]; 12th month): 0.09%
Assay ([4]; Initial): 101%
Purity ([4]; Initial): 99.9%
Total Impurities ([4]; Initial): 0.07%
time solutions chemically and physically stable ([4]; DMA:Saline (80:20 v/v) solutions): at least 12 months
HPLC assay (% w/w on anhydrous and solvent free basis) ([5]; 5 ± 3° C., 3rd month): 99.9 % w/w
HPLC assay (% w/w on anhydrous and solvent free basis) ([5]; 5 ± 3° C., 6th month): 100.9 % w/w
HPLC assay (% w/w on anhydrous and solvent free basis) ([5]; 5 ± 3° C., 9th month): 101.5 % w/w
HPLC assay (% w/w on anhydrous and solvent free basis) ([5]; 5 ± 3° C., 12th month): 99.4 % w/w
HPLC assay (% w/w on anhydrous and solvent free basis) ([5]; 5 ± 3° C., Initial): 99.6 % w/w
HPLC assay (% w/w on anhydrous and solvent free basis) ([5]; 25 ± 2° C., 3rd month): 99.6 % w/w
HPLC assay (% w/w on anhydrous and solvent free basis) ([5]; 25 ± 2° C., 6th month): 100.7 % w/w
HPLC assay (% w/w on anhydrous and solvent free basis) ([5]; 25 ± 2° C., 9th month): 101.5 % w/w
HPLC assay (% w/w on anhydrous and solvent free basis) ([5]; 25 ± 2° C., 12th month): 99.4 % w/w
HPLC assay (% w/w on anhydrous and solvent free basis) ([5]; 25 ± 2° C., Initial): 99.6 % w/w
time chemically stable ([5]; at both 2-8° C. and 15-30° C.): at least 12 months

Reference: patent US20250296948A1, “SYNTHESIS OF NUCLEOSIDE DERIVATIVES” (Nucana plc, priority 2022, published 2025)
